Results taken from PubChem BioAssay (NCI).
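How tested: cells in 96-well plates exposed to compound for 48 hours at five concentrations. GI50 = concentration required for 50% inhibition of growth. TGI is the concentration that stops growth completely.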

Assays:
Test in all cases: NCI-60 cell line screen, 48 h
[1] = test system: SK-MEL-2 melanoma
[2] = test system: ACHN renal
[3] = test system: SF-539 CNS
[4] = test system: NCI/ADR-RES ovarian
[5] = test system: CAKI-1 renal
[6] = test system: M14 melanoma
[7] = test system: UACC-257 melanoma
[8] = test system: SNB-75 CNS
[9] = test system: K-562 leukemia
[10] = test system: SK-MEL-28 melanoma
[11] = test system: HOP-62 NSCLC
[12] = test system: CCRF-CEM leukemia
[13] = test system: OVCAR-5 ovarian
[14] = test system: SK-OV-3 ovarian
[15] = test system: LOX IMVI melanoma
[16] = test system: SR leukemia
[17] = test system: DU-145 prostate
[18] = test system: NCI-H226 lung
[19] = test system: UACC-62 melanoma
[20] = test system: A549 NSCLC
[21] = test system: HOP-92 NSCLC
[22] = test system: MDA-MB-231 breast
[23] = test system: RPMI-8226 leukemia
[24] = test system: NCI-H460 lung
[25] = test system: COLO 205 colon
[26] = test system: EKVX NSCLC
[27] = test system: MOLT-4 leukemia
[28] = test system: UO-31 renal
[29] = test system: NCI-H522 lung
[30] = test system: SK-MEL-5 melanoma
[31] = test system: HS 578T breast
[32] = test system: IGROV1 ovarian
[33] = test system: MALME-3M melanoma
[34] = test system: RXF 393 renal
[35] = test system: A498 renal
[36] = test system: HCT-15 colon
[37] = test system: TK-10 renal
[38] = test system: NCI-H23 lung
[39] = test system: OVCAR-3 ovarian
[40] = test system: MCF7 breast
[41] = test system: HT29 colon
[42] = test system: SW-620 colon
[43] = test system: KM12 colon
[44] = test system: PC-3 prostate
[45] = test system: 786-0 renal
[46] = test system: SF-268 CNS
[47] = test system: BT-549 breast
[48] = test system: U251 CNS
[49] = test system: HL-60(TB) leukemia
[50] = test system: HCC-2998 colon
[51] = test system: SNB-19 CNS
[52] = test system: OVCAR-8 ovarian
[53] = test system: OVCAR-4 ovarian
[54] = test system: SN12C renal
[55] = test system: SF-295 CNS
[56] = test system: MDA-MB-435
[57] = test system: HCT-116 colon

`COc1cc(C2C(C#N)=C(N)Oc3cc(O)ccc32)cc(OC)c1OC` (configuration not stated) gave a GI50 [1] of 496 nM, a TGI [1] of over 100000 nM and a GI50 [2] of 882 nM. It also gave a TGI [2] of over 100000 nM, a GI50 [3] of 333 nM and a GI50 [4] of 1720 nM. It also gave a TGI [4] of over 100000 nM, a GI50 [5] of 970 nM and a TGI [5] of over 100000 nM. It also gave a GI50 [6] of 409 nM, a TGI [6] of over 100000 nM and a GI50 [7] of 401 nM. The TGI [7] was over 100000 nM, the GI50 [8] was 271 nM and the TGI [8] was over 100000 nM. It also gave a GI50 [9] of 435 nM, a TGI [9] of over 100000 nM and a GI50 [10] of 860 nM. The TGI [10] was over 100000 nM, the GI50 [11] was 746 nM and the TGI [11] was over 100000 nM. The GI50 [12] was 370 nM, the TGI [12] was over 100000 nM and the GI50 [13] was 2360 nM. For the same compound, the TGI [13] was over 100000 nM, the GI50 [14] was 481 nM and the TGI [14] was over 43900 nM. For the same compound, the GI50 [15] was 546 nM, the TGI [15] was over 100000 nM and the GI50 [16] was 335 nM. It also gave a TGI [16] of over 100000 nM, a GI50 [17] of 659 nM and a TGI [17] of over 100000 nM. The GI50 [18] was 6980 nM, the TGI [18] was over 100000 nM and the GI50 [19] was 407 nM. The TGI [19] was over 100000 nM, the GI50 [20] was 625 nM and the TGI [20] was over 100000 nM. It also gave a GI50 [21] of 301 nM, a TGI [21] of 97500 nM and a GI50 [22] of 1850 nM. For the same compound, the TGI [22] was over 100000 nM, the GI50 [23] was 650 nM and the TGI [23] was over 89600 nM. It also gave a GI50 [24] of 382 nM, a TGI [24] of over 75200 nM and a GI50 [25] of 583 nM. The TGI [25] was 4100 nM, the GI50 [26] was 6490 nM and the TGI [26] was over 100000 nM. For the same compound, the GI50 [27] was 584 nM, the TGI [27] was over 100000 nM and the GI50 [28] was 3840 nM. For the same compound, the TGI [28] was over 100000 nM, the GI50 [29] was 281 nM and the TGI [29] was 3850 nM. The GI50 [30] was 370 nM, the TGI [30] was 26700 nM and the GI50 [31] was 400 nM. It also gave a TGI [31] of over 100000 nM, a GI50 [32] of 2190 nM and a TGI [32] of over 100000 nM. For the same compound, the GI50 [33] was 644 nM, the TGI [33] was over 100000 nM and the GI50 [34] was 362 nM. The TGI [34] was 1990 nM, the GI50 [35] was 218 nM and the TGI [35] was 1450 nM. For the same compound, the GI50 [36] was 539 nM, the TGI [36] was over 100000 nM and the GI50 [37] was 8610 nM. It also gave a TGI [37] of over 100000 nM, a GI50 [38] of 620 nM and a TGI [38] of over 100000 nM. It also gave a GI50 [39] of 317 nM, a TGI [39] of 851 nM and a GI50 [40] of 334 nM. The TGI [40] was over 100000 nM, the GI50 [41] was 390 nM and the TGI [41] was 11800 nM. The GI50 [42] was 361 nM, the TGI [42] was over 100000 nM and the GI50 [43] was 454 nM. For the same compound, the TGI [43] was 63300 nM, the GI50 [44] was 619 nM and the TGI [44] was over 100000 nM. For the same compound, the GI50 [45] was 668 nM, the TGI [45] was over 100000 nM and the GI50 [46] was 14500 nM. The TGI [46] was over 100000 nM, the GI50 [47] was 419 nM and the TGI [47] was 33300 nM. The GI50 [48] was 439 nM, the TGI [48] was over 100000 nM and the GI50 [49] was 311 nM. The TGI [49] was over 100000 nM, the GI50 [50] was 964 nM and the TGI [50] was over 54800 nM. For the same compound, the TGI [51] was over 100000 nM, the GI50 [52] was 856 nM and the TGI [52] was over 100000 nM. For the same compound, the GI50 [53] was 2140 nM, the TGI [53] was over 100000 nM and the GI50 [54] was 827 nM. For the same compound, the TGI [54] was over 100000 nM, the GI50 [55] was 374 nM and the TGI [55] was over 100000 nM. The GI50 [56] was 147 nM, the TGI [56] was 643 nM and the GI50 [57] was 428 nM. The TGI [57] was over 100000 nM.
